Source: patent US20240000879A1, “HERBAL COMPOSITIONS WITH IMPROVED BIOAVAILABILITY” (priority 2017, published 2024)

Assay: Herbal composition/SNAC oral rat pharmacokinetic (PK) study (Example 5)
Type: in vivo
Conditions: rats; for increase in AUC0-Tlast / increase in Cmax: oral, 50 mg/kg cannabis extract + 500 mg/kg SNAC; for time to reach the mean maximum plasma concentration (Tmax): single oral gavage
Description: Example 5. Summary of an herbal composition/SNAC oral rat pharmacokinetic (PK) study.
Methods. Animals were dosed on Day 1 and a series of blood samples were collected over a period of 4 hours post dose for pharmacokinetic evaluation. Animals were euthanized following collection of their last blood sample.

## CCCCCc1cc(O)c2c(c1)OC(C)(C)[C@@H]1CCC(C)=C[C@@H]21 [THC]
  increase in AUC0-Tlast: 6.3 fold
  increase in Cmax: 6.9 fold
High dose group (50 mg extract/kg + 500 mg SNAC/kg)
  time to reach the mean maximum plasma concentration (Tmax): 2 hours post dose
Low and mid dose groups (25 mg extract/kg + 250 or 500 mg SNAC/kg)
  time to reach the mean maximum plasma concentration (Tmax): 1 hour post dose

## C=C(C)[C@@H]1CCC(C)=C[C@H]1c1c(O)cc(CCCCC)cc1O [CBD]
  increase in AUC0-Tlast: 22.1 fold
  increase in Cmax: 14.2 fold
